Measured values reported in patent US12472201B2, “Complexing agent salt formulations of pharmaceutical compounds” (Bexson Biomedical, Inc., priority 2020, dated 2025).
Where “and” joins values, the source holds several entries; their conditions need not be identical. Identical values can stand only once. Counter-ions that a name gives are not always drawn. Marks after values point to notes of the source that are not given here.

Experiments:
[1] = Forced precipitation of racemic ketamine with 2M NaOH; format: physicochemical; details: 70 mg/mL ketamine FB equiv., 2 mL volume, 2M NaOH after pH 5.5 in 1-2 μL volumes
Description: The tests were conducted on a 2 mL volume. Base was added in 1-2 μL volumes.

[2] = Osmolality of ketamine HCl and ketamine-Captisol complexes; format: physicochemical; details: for Mean Osmolality: each sample run in triplicate
Description: Osmolality. Osmolality readings were obtained on an Advanced Instruments Advanced™ Micro Osmometer Model 3300 (Advanced Instruments, Inc. Norwood, MA, USA). Saline solutions (0.9% and 3%) were freshly prepared with sodium chloride (Fisher Scientific, Fair Lawn, NJ) and run as positive controls. Each sample was calculated as the mean from back-to-back triplicate measurements.

[3] = Solubility of DMT, 5-MeO-DMT and Mescaline in Captisol sodium solution; format: physicochemical; details: equimolar Captisol Sodium form in water; for Appearance after filtration / Osmolality / pH: agitated overnight; for Amine Conc.: total 10 g, agitated at room temperature overnight, after filtration
Description: An equimolar amount of Captisol Sodium form and 5 mL HPLC grade water were added to three 20 mL vials equipped with stir bars. Once a solution was formed, 638 mg of DMT, 700 mg of 5-MeO-DMT, and 700 mg of Mescaline were added to each vial. Each solution was diluted with water to a total solution weight of 10 g. The mixtures were agitated at room temperature overnight and analyzed.

[4] = Final pH and average osmolality of API Captisol formulations and API salt solutions
[5] = Theoretical vs measured osmolarities of API-Cap formulations; format: physicochemical; details: API-Cap Formulations at 70 mg/mL freebase equivalents; for Percentage of Theoretical: measured osmolality vs calculated osmolarity
[6] = Forced precipitation of API HCl salt and API FB-CapAcid formulation with 2M NaOH; format: physicochemical; details: 70 mg/mL API in FB equivalents, 1 mL scale, 1 μL increments of 2M NaOH, starting pH 7.0±0.1
physchem = details: water, thermodynamic from solid
[7] = API HCl salt (70 mg/mL in FB equiv)
[8] = CapAcid-API Freebase Formulation (70 mg/mL API FB, 1.1 molar equiv CapAcid)
[9] = Captisol-API HCl salt formulation (70 mg/mL API HCl salt in FB equiv, 1.1 molar equiv Captisol in CapAcid equiv)
[10] = Captisol salt formulation with DXM HBr 15 mg/mL FB equiv
[11] = salt solution, DXM HBr 15 mg/mL FB equiv
[12] = Captisol salt formulation with Sumatriptan stoichiometric succinate salt, 70 mg/mL FB equiv
[13] = salt solution, Sumatriptan stoichiometric succinate salt, 70 mg/mL FB equiv
[14] = Captisol salt formulation with nicotine Stoichiometric Fumarate salt, 70 mg/mL FB equiv
[15] = salt solution, nicotine Stoichiometric Fumarate salt, 70 mg/mL FB equiv
[16] = salt solution, 5-IAI HCl 35 mg/mL FB equiv

CNC1(c2ccccc2Cl)CCCCC1=O (racemic) [Ketamine HCl]
Mean Volume Base to precip ± SEM [1]: 4 ± 0 µL
Mean Osmolality ([2]; 75 mg/mL): 533.3 mOsm
Mean Osmolality ([2]; 100 mg/mL): 703.0 mOsm
Average osmolality ± SEM ([2]; [Ketamine] 70 mg/mL FB equiv., HCl): 527 ± 2.69 mOsm/kg and 527.0 ± 2.7 mOsm/kg
Average osmolality ± SEM ([2]; [Ketamine] 96 mg/mL FB equiv., HCl): 704.4 ± 9.95 mOsm/kg and 704.4 ± 9.9 mOsm/kg
Average osmolality ± SEM ([2]; [Ketamine] 100 mg/mL FB equiv.): 736.83 ± 3.7 mOsm/kg

CN(C)CCc1c[nH]c2ccccc12 [DMT, N,N-Dimethyltryptamine]
Appearance after filtration [3]: Clear/colorless
Osmolality [3]: 300 mOsm/kg
pH [3]: 11.10
Amine Conc. [3]: 13.6 mg/mi

CNC1(c2ccccc2)CCCCC1=O (stereo not shown) [DCK, 2-(methylamino)-2-phenylcyclohexan-1-one]
Osmolality [4, 7]: 601 mOsm/kg
pH [4, 7]: 4.73
Osmolality [4, 8]: 310 mOsm/kg
pH [4, 8]: 7.00
Osmolality [4, 9]: 1,086 mOsm/kg
pH [4, 9]: 6.98
Measured Osmolality [5]: 310 mOsmol/L
Percentage of Theoretical [5]: 77.1%

Cc1cccc(C(=O)C(C)N(C)C)c1 (stereo not shown) [Me-3-MMC, 2-(dimethylamino)-1-(m-tolyl)propan-1-one]
Osmolality [4, 7]: 578 mOsm/kg
pH [4, 7]: 4.44
Osmolality [4, 8]: 321 mOsm/kg
pH [4, 8]: 6.95
Osmolality [4, 9]: 1,151 mOsm/kg
pH [4, 9]: 7.00
Measured Osmolality [5]: 321 mOsmol/L

COc1cc(CCN)cc(OC)c1OC [Mescaline]
Appearance after filtration [3]: Clear/light yellow
Osmolality [3]: 570 mOsm/kg
pH [3]: 11.69
Amine Conc. [3]: 77.7 mg/mi

CN1CC[C@]23c4c5ccc(O)c4O[C@H]2[C@@H](O)C=C[C@H]3[C@H]1C5 [Morphine, reference compound]
Osmolality [4, 8]: 166 mOsm/kg
pH [4, 8]: 6.09
Measured Osmolality [5]: 166 mOsmol/L
Percentage of Theoretical [5]: 57.9%

CCN(CC)CC(=O)Nc1c(C)cccc1C [Lidocaine, reference compound]
Osmolality [4, 7]: 543 mOsm/kg
pH [4, 7]: 4.60
Osmolality [4, 8]: 304 mOsm/kg
pH [4, 8]: 6.99
Osmolality [4, 9]: 844 mOsm/kg
pH [4, 9]: 6.95
Measured Osmolality [5]: 304 mOsmol/L
Percentage of Theoretical [5]: 87.0%

Cc1cccc(C(=O)C(C)N(C)C)c1.Cl (stereo not shown) [Me-3-MMC HCl, Me-3-MMC hydrochloride]
Volume of Base need for Precipitation [6]: 6.5* μL

CNC(C)Cc1ccc2occc2c1 (stereo not shown) [Example 5-MAPB, 1-(benzofuran-5-yl)-N-methylpropan-2-amine]
Osmolality [4, 7]: 556 mOsm/kg
pH [4, 7]: 3.16
Osmolality [4, 8]: 215 mOsm/kg
pH [4, 8]: 7.10
Osmolality [4, 9]: 1,004 mOsm/kg
pH [4, 9]: 7.15
Measured Osmolality [5]: 215 mOsmol/L

COc1ccc2c(c1)[C@]13CCCC[C@@H]1[C@H](C2)N(C)CC3 [DXM, dextromethorphan, reference compound]
Osmolality [4, 8]: 113 mOsm/kg
pH [4, 8]: 6.95
Osmolality [4, 10]: 145* mOsm/kg
pH [4, 10]: 7.05
Osmolality [4, 11]: 91 mOsm/kg
pH [4, 11]: 5.47
Measured Osmolality [5]: 113 mOsmol/L

COc1ccc2c(c1)[C@]13CCCC[C@@H]1[C@H](C2)N(C)CC3 [DXM HBr hydrate, dextromethorphan HBr hydrate]
solubility at 48 h (physchem): 16.4 mg/mL

COc1ccc2[nH]cc(CCN(C)C)c2c1 [Example 5-MeO-DMT, 5-methoxy-N,N-dimethyltryptamine]
Appearance after filtration [3]: Clear/faint yellow
Osmolality [3]: 316 mOsm/kg
pH [3]: 11.03
Amine Conc. [3]: 14.6 mg/mi

CNC(C)Cc1cccc(F)c1 (stereo not shown) [Example 3-FMA, 1-(3-fluorophenyl)-N-methylpropan-2-amine]
Osmolality [4, 7]: 706 mOsm/kg
pH [4, 7]: 5.17
Osmolality [4, 8]: 337 mOsm/kg
pH [4, 8]: 6.78
Osmolality [4, 9]: 1,388 mOsm/kg
pH [4, 9]: 7.01
Measured Osmolality [5]: 337 mOsmol/L

CNC(C)Cc1cccc(F)c1.Cl (stereo not shown) [3-FMA HCl]
Volume of Base need for Precipitation [6]: 37 µL

CNC(C)C(=O)c1cccc(C)c1 (stereo not shown) [Example 3-MMC, 2-(methylamino)-1-(m-tolyl)propan-1-one]
Osmolality [4, 7]: 636 mOsm/kg
pH [4, 7]: 4.76
Osmolality [4, 8]: 312 mOsm/kg
pH [4, 8]: 6.99
Osmolality [4, 9]: 1,190* mOsm/kg
pH [4, 9]: 6.98
Measured Osmolality [5]: 312 mOsmol/L

CNC(C)Cc1ccc2occc2c1.Cl (stereo not shown) [5-MAPB HCl]
Volume of Base need for Precipitation [6]: 47* μL

CNS(=O)(=O)Cc1ccc2[nH]cc(CCN(C)C)c2c1 [Sumatriptan, 1-(3-(2-(dimethylamino)ethyl)-1H-indol-5-yl)-N-methylmethanesulfonamide, reference compound]
Osmolality [4, 8]: 109 mOsm/kg
pH [4, 8]: 7.06
Osmolality [4, 12]: 858 mOsm/kg
pH [4, 12]: 6.99
Osmolality [4, 13]: 293 mOsm/kg
pH [4, 13]: 4.57
Measured Osmolality [5]: 109 mOsmol/L

CNC1(c2ccccc2F)CCCCC1=O (stereo not shown) [Example 2-F-DCK, 2-(2-fluorophenyl)-2-(methylamino)cyclohexan-1-one]
Osmolality [4, 7]: 560 mOsm/kg
pH [4, 7]: 4.27
Osmolality [4, 8]: 373 mOsm/kg
pH [4, 8]: 6.97
Osmolality [4, 9]: 1,046 mOsm/kg
Measured Osmolality [5]: 373 mOsmol/L
Percentage of Theoretical [5]: 100.9%

CN1CCC[C@H]1c1cccnc1 [Nicotine, S-(−)-nicotine, reference compound]
Osmolality [4, 8]: 555* mOsm/kg
pH [4, 8]: 7.02*
Osmolality [4, 14]: 2,006 mOsm/kg
pH [4, 14]: 6.97
Osmolality [4, 15]: 682 mOsm/kg
pH [4, 15]: 3.80
Measured Osmolality [5]: 555 mOsmol/L
Percentage of Theoretical [5]: 110.1%

CNC1(c2ccccc2Cl)CCCCC1=O (stereo not shown) [Ketamine]
Measured Osmolality [5]: 291 mOsmol/L
Percentage of Theoretical [5]: 84.6%

NC1Cc2ccc(I)cc2C1 (stereo not shown) [Example 5-IAI, 5-iodo-2,3-dihydro-JH-inden-2-amine]
Osmolality [4, 8]: 119 mOsm/kg
pH [4, 8]: 6.97
Osmolality [4, 9]: 621 mOsm/kg
pH [4, 9]: 6.98
Osmolality [4, 16]: 221 mOsm/kg
pH [4, 16]: 4.62
Measured Osmolality [5]: 119 mOsmol/L

CCN(CC)CC(=O)Nc1c(C)cccc1C [Lidocaine HCl, reference compound]
Volume of Base need for Precipitation [6]: 5 µL
